Test results as given in patent US8802638B1, “Flavonoid treatment of glycogen synthase kinase-based disease” (University of South Florida, priority 2007, dated 2014).

How the values were obtained:
[1] = tested on: SweAPP N2a cells; assay: APP proteolysis (Aβ ELISA, IP, APP CTF Western blot) in SweAPP N2a cells; assay type: cell-based, murine
Method: Cultured cells or mouse brain were lysed in ice-cold lysis buffer described above, and an aliquot corresponding to 50 μg of total protein was electrophoretically separated using 12% Tris-HCl or 16.5% Tris-tricine gels. Electrophoresed proteins were then transferred to PVDF membranes, washed in dH2O, and blocked for 1 hr at ambient temperature in Tris-buffered saline (TBS; Bio-Rad) containing 5% (w/v) non-fat dry milk. After blocking, membranes were hybridized for 1 hr at ambient temperature with various primary antibodies. Membranes were then washed 3× for 5 min each in dH2O and incubated for 1 hr at ambient temperature with the appropriate HRP-conjugated secondary antibody (1:1,000). Antibodies were obtained against the amino-terminus and carboxyl-terminus of PS1 (Chemicon, Temecula, Calif.), amino-terminus and carboxyl-terminus of APP (22C11), actin (Roche, Basel, Switzerland), Aβ (6E10, 48G) (Signet Laboratories, Dedham, Mass.), phosphor-GSK3α (ser^21, clone BK202) (Upstate, Lake Placid, N.Y.), phospho-GSK3α/β (pTyr^279/216) (Sigma), phospho-GSK-3β (Ser^9) (Sigma) and total GSK-3α/β (Sigma). All antibodies were diluted in TBS containing 5% (w/v) of non-fat dry milk. Blots were developed using the luminol reagent (Pierce Biotechnology). Densitometric analysis was done as previously described using a FluorS Multiimager with Quantity One™ software (39). Immunoprecipitation was performed for detection of sAPP-α, sAPP-β and Aβ by incubating 200 μg of total protein of each sample with various sequential combinations of 6E10 (1:100) and/or 22C11 (1:100) antibodies overnight with gentle rocking at 4° C., and 10 μL of 50% protein A-Sepharose beads were then added to the sample (1:10; Sigma) prior to gentle rocking for an additional 4 hrs at 4° C. Following washes with 1× cell lysis buffer, samples were subjected to Western blot as described above. Antibodies used for Western blot included the APP-carboxyl-terminal antibody (1:50)), amino-terminal APP antibody (clone 22C11), or 6E10 (1:1,000), or actin antibody (1:1,500; as an internal reference control). γ-secretase activity was quantified in cell lysates using available kits based on secretase-specific peptides conjugated to fluorogenic reporter molecules.
SweAPP N2a cells and primary neuronal cells derived from Tg2576 mice were treated with varying doses of luteolin to examine luteolin's effect on APP proteolysis. Cellular extracts were collected and analyzed using immunoprecipitation (IP), Western blot, and ELISA. […] See FIGS. 1 through 2(B) and 5 through 6(B). SweAPP N2a and primary Tg2576-derived neuronal cells CTF profiles were analyzed following luteolin treatment to determine at which level luteolin impacts amyloid processing.

[2] = tested on: Tg2576 mice; assay: cerebral Aβ levels by ELISA in luteolin-treated Tg2576 mice; assay type: in vivo; conditions: 20 mg/kg i.p. daily for 30 days
Method: (§1) Sixteen (8♂/8♀) Tg2576 mice (Taconic, Germantown, N.Y.) were used; 8 mice received luteolin, and the other 8 received phosphate buffered saline (PBS). Beginning at 8 months of age, Tg2576 mice were intraperitoneally injected with luteolin (20 mg/kg) or PBS daily for 30 days based on previously described methods. These mice were then sacrificed at 9 months of age for analyses of Aβ levels and Aβ load in the brain according to previously described methods. Animals were housed and maintained in the College of Medicine Animal Facility at the University of South Florida (USF), and all experiments were in compliance with protocols approved by the USF Institutional Animal Care and Use Committee.
Eight month-old Tg2576 mice were treated with 20 mg/kg luteolin administered by daily intraperitoneal injection for 30 days to validate the above findings in vivo. […] Phospho-GSK-3α/β-positive neuronal cells were examined under bright-field using an Olympus BX-51 microscope.
Brain homogenates were immunoprecipitated by PS1 antibody and probed for APP to confirm the proposed mechanism. […] To assess this decrease, ELISA was conducted on both soluble and insoluble Aβ1-40, 42.

[3] = tested on: GSK-3α/β; assay: GSK-3 activation in brain homogenates of luteolin-treated Tg2576 mice; assay type: in vivo; conditions: 20 mg/kg i.p. daily for 30 days
Method: as §1
(§2) Cultured cells or mouse brain were lysed in ice-cold lysis buffer described above, and an aliquot corresponding to 50 μg of total protein was electrophoretically separated using 12% Tris-HCl or 16.5% Tris-tricine gels. […] Densitometric analysis was done as previously described using a FluorS Multiimager with Quantity One™ software (39). […] Antibodies used for Western blot included the APP-carboxyl-terminal antibody (1:50)), amino-terminal APP antibody (clone 22C11), or 6E10 (1:1,000), or actin antibody (1:1,500; as an internal reference control). γ-secretase activity was quantified in cell lysates using available kits based on secretase-specific peptides conjugated to fluorogenic reporter molecules. […]

[4] = tested on: PS1; assay: PS1 processing and PS1-APP association in brain homogenates of luteolin-treated Tg2576 mice; assay type: in vivo; conditions: 20 mg/kg i.p. daily for 30 days
Method: as §1
as §2, with “gels. Electrophoresed proteins were then transferred to PVDF membranes, washed in dH2O, and blocked for 1 hr at ambient temperature in Tris-buffered saline (TBS; Bio-Rad) containing 5% (w/v) non-fat dry milk. After blocking, membranes were hybridized for 1 hr at ambient temperature with various primary antibodies. Membranes were then washed 3× for 5 min each in dH2O and incubated for 1 hr at ambient temperature with the appropriate HRP-conjugated secondary antibody (1:1,000).” for “gels.”
Brain homogenates from these mice were subsequently analyzed by immunoprecipitation, Western blot, and ELISA, seen in FIGS. 28(A) through 37. […]

[5] = biological target: GSK-3α/β (Mus musculus, UniProt Q2NL51); assay: Western blot of phosphorylated GSK-3α/β forms in SweAPP N2a cells; assay type: cell-based, murine; set-up: endogenous in cells; host or cells: SweAPP N2a cells; conditions: 20 μM
Chain of GSK-3α/β (Mus musculus, UniProt Q2NL51) (Q2NL51 2-490): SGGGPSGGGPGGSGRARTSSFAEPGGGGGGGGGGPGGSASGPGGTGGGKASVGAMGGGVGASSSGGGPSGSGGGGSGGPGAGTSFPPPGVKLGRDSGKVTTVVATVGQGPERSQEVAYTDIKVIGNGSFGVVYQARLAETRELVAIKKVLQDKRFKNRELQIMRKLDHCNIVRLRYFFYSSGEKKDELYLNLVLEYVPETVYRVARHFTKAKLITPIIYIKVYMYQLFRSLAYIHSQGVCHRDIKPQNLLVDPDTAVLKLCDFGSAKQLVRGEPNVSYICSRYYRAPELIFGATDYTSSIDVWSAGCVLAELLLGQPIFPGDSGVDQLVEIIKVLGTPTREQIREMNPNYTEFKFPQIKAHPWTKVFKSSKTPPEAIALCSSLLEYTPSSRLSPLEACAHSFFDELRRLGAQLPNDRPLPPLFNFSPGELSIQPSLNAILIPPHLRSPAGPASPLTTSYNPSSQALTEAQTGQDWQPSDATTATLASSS
Method: as §2, with “gels. Electrophoresed proteins were then transferred to PVDF membranes, washed in dH2O, and blocked for 1 hr at ambient temperature in Tris-buffered saline (TBS; Bio-Rad) containing 5% (w/v) non-fat dry milk. After blocking, membranes were hybridized for 1 hr at ambient temperature with various primary antibodies. Membranes were then washed 3× for 5 min each in dH2O and incubated for 1 hr at ambient temperature with the appropriate HRP-conjugated secondary antibody (1:1,000).” for “gels.”

**Q.** O=c1cc(-c2ccc(O)c(O)c2)oc2cc(O)cc(O)c12 [luteolin] was tested. Which “accumulation of both α and β CTFs (increase over control)” value ([1]; dose dependent, 12 hrs, Western blot densitometry, SweAPP N2a cells) did it give?
**A.** The value was 2-3 fold.

**Q.** And the “Aβ1-40, 42 peptide generation abrogated” value ([1]; luteolin 20 μM, 12 hrs, SweAPP N2a cells)?
**A.** Its value is > 70%.

**Q.** What about the “Aβ1-40, 42 peptide generation abrogated” value ([1]; luteolin 40 μM, 12 hrs, SweAPP N2a cells) of the same compound?
**A.** The value was > 85%.

**Q.** What about the “Aβ1-40, 42 production” value ([1]; result in words, ELISA/IP/Western blot) of the same compound?
**A.** The value was “effectively reduced Aβ1-40, 42 production in either cell line in a dose dependent manner”.

**Q.** What about the “reduction of soluble Aβ1-40 in brain homogenates” value [2] of the same compound?
**A.** Its value is 25%.

**Q.** And the “reduction of soluble Aβ1-42 in brain homogenates” value [2]?
**A.** The value was 49%.

**Q.** And the “GSK-3α/β active isoforms (ratio of phosphorylated to holo GSK-3)” value [3]?
**A.** The value was “reduced when compared to control”.

**Q.** What about the “holo APP expression in brain homogenates” value [4] of the same compound?
**A.** Its value is “no significant changes”.

**Q.** And the “PS1-APP association in brain homogenates” value ([4]; IP with PS1 antibody)?
**A.** Its value is “effectively abolished PS1-APP association”.

**Q.** And the “PS1 processing (PS1 CTF to actin ratio)” value ([4]; brain homogenates)?
**A.** The value was “significantly lower levels of PS1 processing”.

**Q.** What about the “levels of serine 21-phosphorylated, inactive GSK-3α isoforms” value ([5]; SweAPP N2a cells) of the same compound?
**A.** Its value is “increased the levels”.

**Q.** And the “levels of tyrosine 279 phosphorylated active GSK-3α isoforms” value ([5]; through 3 hrs (FIGS. 13 and 17))?
**A.** Its value is “concurrently decreased in time-dependent manner”.
